The source made the active and inactive calls.
What was measured:
[1] = Counterscreen for antagonists of the human trace amine associated receptor 1 (hTAAR1): Fluorescence-based cell-based high throughput dose response assay to identify nonselective Ga16 antagonists.; type: functional
[2] = target: T1, Trace amine-associated receptor 1 (Homo sapiens, UniProt Q96RJ0); test: Fluorescence-based cell-based high throughput dose response assay to identify antagonists of the human trace amine associated receptor 1 (TAAR1).; type: functional
T1 sequence (Q96RJ0 whole entry): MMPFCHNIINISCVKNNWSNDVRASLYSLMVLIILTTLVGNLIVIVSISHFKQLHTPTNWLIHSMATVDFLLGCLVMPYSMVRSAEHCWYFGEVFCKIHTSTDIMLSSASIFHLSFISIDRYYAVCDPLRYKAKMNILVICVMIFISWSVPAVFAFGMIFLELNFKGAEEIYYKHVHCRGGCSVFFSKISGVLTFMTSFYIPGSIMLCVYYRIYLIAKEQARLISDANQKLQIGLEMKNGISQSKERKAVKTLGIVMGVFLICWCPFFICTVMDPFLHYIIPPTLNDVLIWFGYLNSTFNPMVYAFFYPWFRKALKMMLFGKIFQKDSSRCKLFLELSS

[3] = Counterscreen for […] of the human trace amine associated receptor 1 (TAAR1): Fluorescence-based cell-based high throughput dose response assay to identify nonselective Ga16 agonists.; type: functional
[4] = target: T1, Trace amine-associated receptor 1; test: Counterscreen for antagonists of the human trace amine associated receptor 1 (hTAAR1): Fluorescence-based cell-based high throughput dose response assay to identify TAAR1 Agonists.; type: functional
[5] = target: Palmitoyl-protein thioesterase ABHD10, mitochondrial (Mus musculus, UniProt Q6PE15); test: Late stage assay provider results from the probe development effort to identify inhibitors of PME-1: fluorescence-based dose response biochemical gel-based competitive Activity-Based Protein Profiling (ABPP) inhibition of ABHD10 Set 1.; type: functional
[6] = viability loss in HepG2 hepatoma cells – cell-based, cherry-picks, set 5, cytotoxicity control, dose response (AID 1053118); type: functional
[7] = target: T2, Tyrosine-protein phosphatase non-receptor type 22 (Homo sapiens, UniProt Q9Y2R2); test: PTPN22 enzyme inhibitors – biochemical, fluorescence, LYP catalytic domain, selectivity assay for LMPTP inhibitor project, dose response (AID 652006); type: functional; settings: read-out: IC50_Mean
T2 sequence (Q9Y2R2 whole entry): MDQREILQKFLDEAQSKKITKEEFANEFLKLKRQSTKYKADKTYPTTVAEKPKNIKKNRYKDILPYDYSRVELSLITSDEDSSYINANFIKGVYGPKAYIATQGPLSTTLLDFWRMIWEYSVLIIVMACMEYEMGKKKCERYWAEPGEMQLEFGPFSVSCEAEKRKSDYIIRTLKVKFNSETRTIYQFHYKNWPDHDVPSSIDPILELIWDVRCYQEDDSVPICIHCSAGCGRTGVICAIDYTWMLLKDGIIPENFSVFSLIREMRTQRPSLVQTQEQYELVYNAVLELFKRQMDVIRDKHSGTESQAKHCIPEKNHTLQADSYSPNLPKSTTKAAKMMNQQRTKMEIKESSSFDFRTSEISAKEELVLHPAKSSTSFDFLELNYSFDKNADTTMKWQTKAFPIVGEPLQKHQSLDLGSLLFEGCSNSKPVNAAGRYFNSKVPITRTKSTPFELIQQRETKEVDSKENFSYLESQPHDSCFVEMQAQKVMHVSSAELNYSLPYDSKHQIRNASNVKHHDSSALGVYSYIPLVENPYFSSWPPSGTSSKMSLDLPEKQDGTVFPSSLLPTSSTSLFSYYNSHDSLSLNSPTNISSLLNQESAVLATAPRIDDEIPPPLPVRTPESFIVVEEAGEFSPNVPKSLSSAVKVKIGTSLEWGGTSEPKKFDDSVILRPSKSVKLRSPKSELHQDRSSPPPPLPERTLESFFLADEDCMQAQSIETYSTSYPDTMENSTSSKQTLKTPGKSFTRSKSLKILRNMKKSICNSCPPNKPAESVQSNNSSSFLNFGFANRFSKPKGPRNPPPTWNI

[8] = target: T3, Low molecular weight phosphotyrosine protein phosphatase (Homo sapiens, UniProt P24666); type: functional; settings: read-out: IC50_Mean;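 note: Dose-response confirmation assay measuring inhibition of LMPTP enzyme activity by fluorescence intensity read-out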
T3 sequence (P24666 whole entry): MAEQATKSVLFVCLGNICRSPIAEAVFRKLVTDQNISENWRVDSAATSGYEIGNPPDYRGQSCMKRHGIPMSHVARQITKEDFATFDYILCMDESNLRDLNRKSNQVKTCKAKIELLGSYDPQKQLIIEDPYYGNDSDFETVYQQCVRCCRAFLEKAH

[9] = target: T4, DNA repair protein RAD52 homolog (Homo sapiens, UniProt P43351); type: functional, biochemical
T4 sequence (P43351 whole entry): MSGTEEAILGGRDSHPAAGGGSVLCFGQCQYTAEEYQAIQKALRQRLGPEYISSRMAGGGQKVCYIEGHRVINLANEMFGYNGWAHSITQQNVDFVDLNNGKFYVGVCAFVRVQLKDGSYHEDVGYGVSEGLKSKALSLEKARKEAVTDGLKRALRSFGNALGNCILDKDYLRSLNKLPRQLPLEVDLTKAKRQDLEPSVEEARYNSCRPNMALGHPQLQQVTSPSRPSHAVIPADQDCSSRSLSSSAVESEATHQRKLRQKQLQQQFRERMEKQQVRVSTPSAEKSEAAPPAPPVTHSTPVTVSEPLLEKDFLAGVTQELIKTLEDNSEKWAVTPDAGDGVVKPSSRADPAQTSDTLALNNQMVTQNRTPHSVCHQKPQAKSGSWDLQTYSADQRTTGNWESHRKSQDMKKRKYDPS

[10] = target: Matrix metalloproteinase-14 (Homo sapiens, UniProt P50281); test: Dose Response confirmation of uHTS hits for a small molecule inhibitors of MT1-MMP activation in a fluorescence assay set 2.; type: functional
[11] = target: Botulinum neurotoxin type F (Clostridium botulinum, UniProt P30996); test: High-throughput multiplex microsphere dose response for inhibitors of toxin protease, specifically Botulinum neurotoxin light chain F protease, compounds from Cherry Pick 02.; type: functional; settings: read-out: EC50_MICROM
[12] = rescue of ΔF508 CFTR function, airway epithelium – human bronchial epithelial cells, plate reader, cherry-pick, two tests, dose response (AID 743267); type: functional, cell-based
[13] = intracellular Trypanosoma cruzi inhibitors in host cells – cell-based, plate reader, cherry-pick samples, set 3, dose response (AID 651818); type: functional;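 note: compounds incubated with infected cells for about four days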
[14] = mouse fibroblast viability loss – cell-based, cherry-pick samples, set 2, cytotoxicity control for T. cruzi growth inhibitor project, dose response (AID 651817); type: functional; settings: NIH3T3
[15] = general mammalian cell viability loss – inhibitor set, cherry-pick, set 2, cytotoxicity control for miR-122 modulator project, dose response (AID 720697); type: functional, cell-based
Galanin receptor type 3 = Galanin receptor type 3 (Homo sapiens, UniProt O60755); test: Fluorescence-based cell-based primary high throughput dose response assay to identify antagonists of the Galanin Receptor 3 (GalR3).; type: functional
cells = type: functional, cell-based; settings: HEK-CNG
ORF 73 = ORF 73 (Human herpesvirus 8, UniProt O40947); test: KSHV LANA DNA-binding disruption – biochemical, fluorescence polarization, cherry-picked samples, dose response (AID 504725); design: species or system Human gammaherpesvirus 8;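 note: fluorescence polarization of a labeled DNA duplex reporting LANA DNA binding; potency is for inhibitors that block LANA binding to the DNA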
Beta Lactamase = Beta Lactamase (Pseudomonas aeruginosa, UniProt Q932Y6);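 note: confirmatory high-throughput screen measuring VIM-2 metallo-beta-lactamase inhibition by epi-absorbance in dose response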
Beta-lactamase [16] = target: Beta-lactamase (Pseudomonas aeruginosa, UniProt Q79MP6);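 note: biochemical dose-response test of metallo-beta-lactamase enzyme inhibition, read out by epi-absorbance; purified recombinant IMP-1 metallo-beta-lactamase with nitrocefin as substrate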
Beta-lactamase [17] = target: Beta-lactamase (Salmonella choleraesuis (strain SC-B67), UniProt Q5J463)
[18] = target: T5, Beta-2 adrenergic receptor (Homo sapiens, UniProt P07550); test: Dose response for HTS for Beta-2AR agonists via FAP method from Powderset3.; type: functional
[19] = target: T5, Beta-2 adrenergic receptor; test: ADRB2 activation measured by internalization – cell-based, FAP fluorogen, flow cytometry, cherry pick 1, dose response (AID 588763); type: functional

T5 sequence (P07550 whole entry): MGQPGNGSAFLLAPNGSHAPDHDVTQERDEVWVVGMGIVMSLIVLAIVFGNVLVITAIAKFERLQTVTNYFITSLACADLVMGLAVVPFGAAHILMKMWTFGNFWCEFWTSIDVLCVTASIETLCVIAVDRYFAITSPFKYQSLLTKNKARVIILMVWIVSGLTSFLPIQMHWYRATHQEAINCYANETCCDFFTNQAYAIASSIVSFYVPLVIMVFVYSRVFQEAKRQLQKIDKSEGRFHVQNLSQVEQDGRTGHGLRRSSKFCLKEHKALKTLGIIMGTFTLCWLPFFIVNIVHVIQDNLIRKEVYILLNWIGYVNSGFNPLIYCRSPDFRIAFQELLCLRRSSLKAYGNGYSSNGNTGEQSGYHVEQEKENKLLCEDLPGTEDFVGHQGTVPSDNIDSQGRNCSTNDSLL
Beta-lactamase (Salmonella choleraesuis (strain SC-B67), UniProt Q5J463), sequence (Q5J463 whole entry): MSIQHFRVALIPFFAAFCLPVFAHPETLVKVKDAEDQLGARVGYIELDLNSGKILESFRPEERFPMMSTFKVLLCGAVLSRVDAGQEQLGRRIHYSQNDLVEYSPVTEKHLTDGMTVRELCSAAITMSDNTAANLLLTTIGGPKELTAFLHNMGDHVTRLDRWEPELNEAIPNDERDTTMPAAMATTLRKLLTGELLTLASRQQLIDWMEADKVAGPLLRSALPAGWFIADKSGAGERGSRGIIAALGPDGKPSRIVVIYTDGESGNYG
ORF 73, sequence (O40947 whole entry): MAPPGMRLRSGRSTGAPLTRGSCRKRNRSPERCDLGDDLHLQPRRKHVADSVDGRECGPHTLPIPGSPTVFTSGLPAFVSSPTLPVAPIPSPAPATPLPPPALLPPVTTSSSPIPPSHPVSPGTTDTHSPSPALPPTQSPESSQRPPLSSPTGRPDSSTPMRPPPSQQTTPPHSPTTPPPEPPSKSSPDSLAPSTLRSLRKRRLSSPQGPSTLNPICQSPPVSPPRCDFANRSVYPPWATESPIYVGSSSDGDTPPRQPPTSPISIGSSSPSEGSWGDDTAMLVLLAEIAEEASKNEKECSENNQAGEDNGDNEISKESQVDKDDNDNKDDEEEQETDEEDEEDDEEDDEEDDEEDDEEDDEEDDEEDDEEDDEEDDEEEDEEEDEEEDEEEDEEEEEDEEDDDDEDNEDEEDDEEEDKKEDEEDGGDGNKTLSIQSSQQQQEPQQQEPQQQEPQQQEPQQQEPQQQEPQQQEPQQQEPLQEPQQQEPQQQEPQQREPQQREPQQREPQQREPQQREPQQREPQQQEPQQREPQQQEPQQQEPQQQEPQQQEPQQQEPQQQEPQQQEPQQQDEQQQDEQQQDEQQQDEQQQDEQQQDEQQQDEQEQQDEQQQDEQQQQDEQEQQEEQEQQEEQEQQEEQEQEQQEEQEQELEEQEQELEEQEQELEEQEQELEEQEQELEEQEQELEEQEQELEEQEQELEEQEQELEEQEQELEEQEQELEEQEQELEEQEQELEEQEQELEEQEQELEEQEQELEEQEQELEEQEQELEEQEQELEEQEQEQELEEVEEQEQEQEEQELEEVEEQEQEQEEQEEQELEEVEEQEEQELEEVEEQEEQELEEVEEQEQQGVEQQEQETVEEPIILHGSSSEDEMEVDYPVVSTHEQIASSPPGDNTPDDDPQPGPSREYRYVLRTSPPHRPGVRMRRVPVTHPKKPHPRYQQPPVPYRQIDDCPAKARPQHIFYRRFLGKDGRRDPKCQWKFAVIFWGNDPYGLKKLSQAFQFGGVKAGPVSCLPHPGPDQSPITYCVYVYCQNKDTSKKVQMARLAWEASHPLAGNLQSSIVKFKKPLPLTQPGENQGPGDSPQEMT
Palmitoyl-protein thioesterase ABHD10, mitochondrial, sequence (Q6PE15 whole entry): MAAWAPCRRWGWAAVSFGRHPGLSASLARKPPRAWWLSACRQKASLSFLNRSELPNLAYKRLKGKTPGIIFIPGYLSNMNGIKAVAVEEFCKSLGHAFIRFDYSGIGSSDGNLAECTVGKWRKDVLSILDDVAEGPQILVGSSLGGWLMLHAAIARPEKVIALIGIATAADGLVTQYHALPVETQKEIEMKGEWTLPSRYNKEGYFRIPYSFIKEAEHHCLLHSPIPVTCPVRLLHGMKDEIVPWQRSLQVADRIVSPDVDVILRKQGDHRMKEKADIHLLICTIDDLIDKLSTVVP
Beta Lactamase, sequence (Q932Y6 whole entry): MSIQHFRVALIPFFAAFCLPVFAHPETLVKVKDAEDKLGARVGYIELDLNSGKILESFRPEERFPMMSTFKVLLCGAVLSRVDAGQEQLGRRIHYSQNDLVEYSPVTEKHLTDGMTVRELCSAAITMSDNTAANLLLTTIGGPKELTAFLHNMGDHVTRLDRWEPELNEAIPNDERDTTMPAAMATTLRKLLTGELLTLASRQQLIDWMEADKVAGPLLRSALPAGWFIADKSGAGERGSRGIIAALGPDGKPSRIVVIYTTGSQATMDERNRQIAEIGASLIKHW
Beta-lactamase (Pseudomonas aeruginosa, UniProt Q79MP6), sequence (Q79MP6 whole entry): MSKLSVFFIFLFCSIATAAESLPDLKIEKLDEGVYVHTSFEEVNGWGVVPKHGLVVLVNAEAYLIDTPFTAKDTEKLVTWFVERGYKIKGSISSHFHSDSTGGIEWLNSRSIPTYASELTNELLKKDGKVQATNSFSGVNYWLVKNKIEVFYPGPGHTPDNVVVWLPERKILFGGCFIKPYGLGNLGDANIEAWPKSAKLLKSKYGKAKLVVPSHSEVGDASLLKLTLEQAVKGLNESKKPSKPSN
Galanin receptor type 3, sequence (O60755 whole entry): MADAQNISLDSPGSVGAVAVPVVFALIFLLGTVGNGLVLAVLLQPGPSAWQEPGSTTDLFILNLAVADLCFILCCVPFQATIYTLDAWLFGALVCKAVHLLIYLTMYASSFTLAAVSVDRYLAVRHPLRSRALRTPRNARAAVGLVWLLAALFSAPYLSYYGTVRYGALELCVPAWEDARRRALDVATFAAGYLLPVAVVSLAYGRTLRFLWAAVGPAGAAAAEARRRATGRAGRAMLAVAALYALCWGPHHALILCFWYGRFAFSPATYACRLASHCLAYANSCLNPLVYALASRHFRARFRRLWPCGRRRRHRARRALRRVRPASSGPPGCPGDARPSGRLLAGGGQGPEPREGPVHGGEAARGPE
Botulinum neurotoxin type F, sequence (P30996 1-436 limits assumed): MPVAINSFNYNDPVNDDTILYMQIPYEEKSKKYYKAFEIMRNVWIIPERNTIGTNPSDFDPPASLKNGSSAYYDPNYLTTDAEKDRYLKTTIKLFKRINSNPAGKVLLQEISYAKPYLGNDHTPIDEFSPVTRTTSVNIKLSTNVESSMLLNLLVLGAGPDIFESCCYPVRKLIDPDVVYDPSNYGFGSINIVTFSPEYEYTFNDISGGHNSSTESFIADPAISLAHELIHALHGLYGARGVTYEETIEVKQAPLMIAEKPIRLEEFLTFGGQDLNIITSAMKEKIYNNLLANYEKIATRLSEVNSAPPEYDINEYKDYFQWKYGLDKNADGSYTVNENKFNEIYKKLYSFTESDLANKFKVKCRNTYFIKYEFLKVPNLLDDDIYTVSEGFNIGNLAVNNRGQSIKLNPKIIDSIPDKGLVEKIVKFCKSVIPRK

For O=C(Nc1cccnc1)c1ccc(COc2ccccc2Br)cc1, the IC50 [1] was > 29.9 µM (inactive), the IC50 [2] was 4.17 µM (active) and the EC50 [3] was > 29.9 µM (inactive). The EC50 [4] was > 29.9 µM (inactive).

In the case of CC[C@@]1(c2ccccc2)C(=O)N(C(=O)OC(C)C)N1C(=O)OC(C)C, the IC50 [5] is reported as 0.13 µM (active).

For Cc1ccc(N(CC(=O)NCc2ccco2)S(=O)(=O)c2ccccc2)cc1, the AC50 [6] was > 52 µM (inactive).

In the case of CN1/C(=C/C=C/c2n(C)c3cc([N+](=O)[O-])c([N+](=O)[O-])cc3[n+]2C)C(C)(C)c2ccccc21, the IC50 [7] is reported as 42.2 µM (inactive), the IC50 [8] is reported as 20.1 µM (inactive) and the AC50 [9] is reported as 18.4 µM (active). The IC50 [10] was 6.17 µM (active).

With CN(CC(=O)NC1CCN(Cc2ccccc2)CC1)S(=O)(=O)c1ccc(Cl)cc1 the EC50 [11] was > 20 µM (inactive).

In the case of COc1cc(/C=C(\CC(=O)O)c2nc3ccccc3s2)ccc1OCC(=O)Nc1ccccc1F, the AC50 [12] is reported as 58.5 µM (active).

For C[C@H](CO)N1C[C@H](C)[C@@H](CN(C)Cc2ccc(Cl)c(Cl)c2)Oc2c(NC(=O)Nc3ccc(C(F)(F)F)cc3)cccc2C1=O, the AC50 [13] was 3.08 µM (active) and the AC50 [14] was 10.2 µM (active).

For Cc1nc(O)c(C#N)cc1-c1ccccc1, the AC50 [15] was 2.43 µM (active), the IC50 (Galanin receptor type 3) was 5.68 µM (active) and the EC50 (cells) was > 29.9 µM (inactive).

With CN(C)c1ccc(/C=N/N(CCO)C2=NS(=O)(=O)c3ccccc32)cc1 the AC50 (ORF 73) was 1 µM (active), the IC50 (Beta Lactamase) was 9.4 µM (active) and the IC50 (Beta-lactamase [16]) was 8.93 µM (active). The IC50 (Beta-lactamase [17]) was 6.94 µM (active).

With CC(Sc1nc(-c2ccccc2)cc(C(F)(F)F)n1)C(=O)N1CCOCC1 (stereo not drawn) the EC50 [18] was 0.0143 µM (active) and the EC50 [19] was 0.0435 µM (active).

Reference: ChEMBL document CHEMBL1201862, “PubChem BioAssay data set” (2004)
